Common to all, as to assay type: cell-based
For one assay, the system named is human washed platelets. As to the kind of experiment: Inhibition of Convulxin-mediated platelet calcium mobilization in vitro. The note with it: 125 ng/mL Convulxin. As for the experimental part:
Inhibition of Convulxin-induced calcium mobilization was determined in human washed platelets using the FLIPR Calcium 3 Assay Kit (Molecular Devices, Sunnyvale, Calif.). For preparation of washed platelets, human venous blood was collected from healthy, drug-free volunteers into ACD (85 mM sodium citrate, 111 mM glucose, 71.4 mM citric acid) containing PGI2 (1.25 mL ACD containing 0.2 μM PGI2 final; PGI2 from Sigma, St. Louis, Mo.). Platelet-rich plasma (PRP) was prepared by centrifugation at 160×g for 20 minutes at room temperature. Washed platelets were prepared by centrifuging PRP for 10 minutes at 730×g and resuspending the platelet pellet in CGS (13 mM sodium citrate, 30 mM glucose, 120 mM NaCl; 2 mL CGS/10 mL original blood volume). The wash in CGS was repeated a second time, the platelets were collected by centrifugation at 730 g for 10 minutes and resuspended at a concentration of 3×10^8 platelets/mL in Hepes-Tyrode's buffer (10 mM Hepes, 138 mM NaCl, 5.5 mM glucose, 2.9 mM KCl, 12 mM NaHCO3, pH 7.4). This platelet suspension was allowed to rest for 45 minutes at room temperature before use in calcium mobilization assays.
For 96-well plate calcium-mobilization experiments, equal volumes of 3×10^8 washed platelets/mL were incubated with equal volumes of Calcium-3 Assay Reagent A resuspended in 1× Hank's Balanced Salt Solution, pH 7.4, 20 mM Hepes buffer. The total reaction volume of 0.2 mL/well included 1.5×10^8/mL washed platelet/Calcium-3 Assay reagent A mix, 10 μM Eptifibatide (Millennium Pharmaceuticals Inc, Cambridge, Mass.) and serial dilutions (1:3) of test compounds in 0.75% DMSO. DMSO alone was added to 1 well of each 8 set to allow for a maximal calcium-mobilization reading. After a 20 minute preincubation at room temperature, the 96-well microplate reader was loaded into the FlexStation (Molecular Devices, Sunnyvale, Calif.). The FlexStation experimental conditions for measuring calcium mobilization were set up using SOFTMax Pro. The settings used were as follows: Fluorescence parameters-assay mode: flex, excitation 485 nm, 525 nM with a cut-off of 515 nM; Parameters—PMT sensitivity-6, pipette height 230 μl, read time 2 minutes and 40 seconds, read intervals 2 seconds, temperature-23-25° C. After 18 seconds of baseline reading, calcium mobilization was initiated by the addition of Convulxin to a final concentration of 125 ng/mL. Inhibition of calcium mobilization was calculated as the maximum response observed in the presence of inhibitor, compared to that in the absence of inhibitor. IC50s were then derived by non-linear regression analysis.
Background: Calcium assays in cells follow changes in intracellular calcium, usually with a dye or a luminescent sensor.

For assay [1], the system named is IL-4 induced STAT-6 phosphorylation (JAK1/JAK3) in Ramos B-cells. As to the kind of experiment: JAK3/STAT6 cellular assay: IL-4 induced STAT-6 phosphorylation, intracellular flow cytometry. Conditions: Homo sapiens, Ramos B-cells pre-treated 1 hour, IL-4 10 minutes. From the text: Similar types of assays can be used to assess JAK kinase inhibitory activity and to determine the degree of selectivity of the particular compound as compared to Syk kinase. One means of assaying for such inhibition is detection of the effect of the compounds of the present invention on the upregulation of downstream gene products. In the Ramos/IL4 assay, B-cells are stimulated with the cytokine Interleukin-4 (IL-4) leading to the activation of the JAK/Stat pathway through phosphorylation of the JAK family kinases, JAK1 and JAK3, which in turn phosphorylate and activate the transcription factor Stat-6. […] To study the effect of inhibitors (e.g., the 2,4-substituted pyrimindinediamine compounds described herein) on the JAK1 and JAK3 kinases, human Ramos B-cells are stimulated with human IL-4. 10′ post-stimulation, cells are subjected to intracellular flow cytometry to measure the extent of STAT-6 phosphorylation. 20 to 24 hours post-stimulation, cells are stained for upregulation of CD23 and analyzed using flow cytometry.
Stimulation of Ramos B-cells by IL-4 leads to signaling through JAK1/JAK3 resulting in phosphorylation of STAT6 (signal transducers and activators of transcription). The effect of compounds on inhibition of JAK3 and/or JAK1 can be assessed by measuring the amount of phosphorylated STAT6. This may be performed by Western blotting and/or intracellular flow cytometry using a specific phospho-STAT6 antibody. Data describing compound inhibition of IL-4 induced STAT-6 phosphorylation (measured by intracellular flow cytometry) for Compound 1-1 (Example 1) is presented in the following table.
For the data in the above Table, Ramos B-cells were pre-treated for 1 hour with increasing concentrations of Compound 1-1, as indicated prior to addition of IL-4. Cells were incubated with IL-4 for 10 minutes, and then subjected to intracellular flow cytometry to measure the percent inhibition of IL-4 induced Stat-6, as shown.
For orientation: Flow cytometry measures light scatter and fluorescence of single cells or particles in a stream.

Assay [2] has as its system human platelet-rich plasma (PRP). As to the kind of experiment: Convulxin-induced aggregation assay (cuvette light transmittance). The note with it: 125-250 ng/mL Convulxin, read-out: IC50, inhibition of convulxin-induced aggregation of platelet rich plasma. As for the experimental part: For preparation of human platelet-rich plasma (PRP) for aggregation assays, human venous blood was collected from healthy, drug-free volunteers into 0.38% sodium citrate (0.013 M, pH 7.0 final). PRP was prepared by centrifugation of whole blood at 160×g for 20 minutes at room temperature. The PRP layer was removed, transferred to a new tube, and the platelet count was adjusted, if necessary, to achieve a platelet concentration of ˜3×10^8 platelets/mL using platelet-poor plasma (PPP). PPP was prepared by centrifugation of the remaining blood sample (after removal of PRP) for 20 minutes at 800×g. This preparation of PRP may be subsequently used for aggregation assays in either a 96-well plate or standard cuvette aggregometry.
Inhibition of Convulxin-induced aggregation was determined by cuvette light transmittance aggregation assays. Serial dilutions (1:2) of test compounds were prepared in 30% DMSO in a 96-well V-bottom plate (final DMSO concentration in the cuvette was 0.3%). The test compound (5 μl of serial dilutions in DMSO) was preincubated with PRP for 20 minutes prior to initiation of the aggregation reactions, which were performed in a ChronoLog aggregometer by addition of agonist (125-250 ng/mL Convulxin) to 495 μL of PRP at 37° C. The aggregation reaction was recorded for 4 minutes, and the maximum extent of aggregation was determined by the difference in extent of aggregation at baseline, compared to the maximum aggregation that occurred during the 4 minute period of the assay. Inhibition of aggregation was calculated as the maximum aggregation observed in the presence of inhibitor, compared to that in the absence of inhibitor. IC50s were derived by non-linear regression analysis.

One may read the IC50 as the concentration that gives 50% inhibition. The term inhibition denotes the percentage by which the read-out fell short of the control.

On to `CC(=O)N1CCN(c2ccc(Nc3nc(Nc4ccc5cn[nH]c5c4)c4cc[nH]c4n3)cc2)CC1` [Compound 1-1, 1-(4-(4-(4-(1H-indazol-6-ylamino)-7H-pyrrolo[2,3-d]pyrimidin-2-ylamino)phenyl)piperazin-1-yl)ethanone], for which the figures for the half-inhibitory concentration (IC50) (with human washed platelets; in assay [2]) were < 1 µM and ≤ 50 µM, respectively. In assay [1] (0.05 μM compound), the inhibition at 0.05 µM came out at 0%. Further, the inhibition at 0.125 µM in assay [1] (0.125 μM compound) was found to be 6%. For the same molecule, the inhibition at 0.25 µM in assay [1] (0.25 μM compound) stood at 22%. In assay [1] (0.5 μM compound), the inhibition at 0.5 µM is 33%. Besides, the inhibition at 1 µM in assay [1] (1 μM compound) was found to be 41%. In addition, the inhibition at 2 µM in assay [1] (2 μM compound) came out at 49%.
On to `CS(=O)(=O)c1ccc(Nc2nc(Nc3ccc4cn[nH]c4c3)c3cc[nH]c3n2)cc1` [Compound 9-1, N4-(1H-indazol-6-yl)-N2-(4-(methylsulfonyl)phenyl)-7H-pyrrolo[2,3-d]pyrimidine-2,4-diamine], for which the IC50 is < 1 µM in the assay with human washed platelets and ≤ 50 µM in assay [2].
